{"source": "patent US8828678B2", "about": "“Self-immolative probes for enzyme activity detection” (Enzo Life Sciences, Inc., priority 2010, dated 2014)", "assay": "Chemical reduction of CD-8 and enzymatic (HRP) luminescence testing of the reduction product", "settings": "200 μM CD-8, 1 mM sodium hydrosulfite, 1 hour room temperature, then H2O2, 4-iodophenol", "protocol": "100 μl of 200 μM CD-8 (dissolved in 1×PBS buffer) with (1 mM) or without sodium hydrosulfite was incubated in a 96 black microplate (Greiner®) at room temperature for 1 hour. Also included was a positive control of 100 μl of 50 μM of isoluminol dissolved in 1×PBS buffer. A 4:1 volumetric mixture (1.25 μL) of stabilized H2O2 (Roche Diagnotics GmbH: Reference number: 11 582 950 001, component 2) and 200 mM of 4-idophenol was then added. Before adding horseradish peroxidase (HRP), the background luminescence was recorded; after adding 2 μL of 50 μM HRP, the luminescence was immediately recorded on a Biotek® plate reader."}
{"smiles": "O=C(Nc1ccc2c(=O)[nH][nH]c(=O)c2c1)OCc1ccc([N+](=O)[O-])cc1", "note": "[CD-8]", "values": [{"measurement": "luminescence / release of isoluminol after sodium hydrosulfite", "result": "triggering the self-immolative release of isoluminol"}]}
